For experiment [1], the target named is EGFR L858R/T790M/C797S (Homo sapiens (Human), UniProt P00533, C797S/L858R/T790M). As to the kind of experiment: TR-FRET assay for ERBB kinases. The format is biochemical. Particulars: geometric mean if measured more than once. A digest of the protocol:
(§1)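 Read-out is TR-FRET between a terbium anti-phosphotyrosine (pY20) antibody and phosphorylated fluorescein-labelled poly-GluTyr, excited at 340 nm with donor 490 nm and acceptor 520 nm emission. Phosphorylation ran 10 min at room temperature after a 10 min compound–enzyme pre-incubation. The substrate mix contained 3 mM ATP.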
(In TR-FRET formats the signal depends on donor and acceptor labels being close together.)

In experiment [2] the target is EGFR L858R/T790M (Homo sapiens (Human), UniProt P00533, L858R/T790M). As to the kind of experiment: TR-FRET assay for ERBB kinases. The settings on record: geometric mean if measured more than once. The format is biochemical. In outline: as §1
The target in experiment [3] is EGFR WT (Homo sapiens (Human), UniProt P00533). As to the kind of experiment: TR-FRET assay for ERBB kinases. The format is biochemical. The settings on record: geometric mean if measured more than once. In outline:
as §1

In experiment [4] the target is EGFR L858R/T790M double mutant (H1975) (Homo sapiens (Human), UniProt P00533, L858R/T790M). The experiment is described as follows: EGFR protein degradation assay (Western blot). The format is cell-based. Particulars: 72 hours, 300 nM to 10 nM. In outline: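 Cells carrying the relevant EGFR form were plated at 300,000 cells per well in 6-well plates and left to attach overnight. After washing in ice-cold PBS, cells were lysed in 400 μl lysis buffer with protease inhibitors, scraped, and clarified at 10 000 rpm for 10 minutes. EGFR levels were then assessed by Western blot with tubulin as loading control.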
In general terms: In western blotting, separated proteins are transferred to a membrane and probed.

The target of experiment [5] is EGFR Δ19/746/750 (Homo sapiens (Human), UniProt P00533, DEL746-750). As to the kind of experiment: TR-FRET assay for ERBB kinases. The format is biochemical. Particulars: geometric mean if measured more than once. A digest of the protocol: (§2)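 Compounds pre-incubated 10 min with kinase in HEPES pH 7.5 buffer (MgCl2, DTT, Pluronic), then reaction started with substrate mix (3 mM ATP, 30 µM fluorescein-poly-GluTyr, stock levels) for 10 min at room temperature. EDTA-quenched, detected by Tb-pY20 antibody TR-FRET (520/490 nm emission).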

Experiment [6] addresses HER2WT (Homo sapiens (Human), UniProt P04626). The experiment is described as follows: TR-FRET assay for ERBB kinases. Particulars: geometric mean if measured more than once. The format is biochemical. In outline: as §2
Experiment [7] addresses EGFR L858R (Homo sapiens (Human), UniProt P00533, L858R). The experiment is described as follows: TR-FRET assay for ERBB kinases. The experiment is classed as biochemical. Particulars: geometric mean if measured more than once. A digest of the protocol: as §2
The target in experiment [8] is EGFR Δ19/746/750 T790M (Homo sapiens (Human), UniProt P00533, DEL746-750/T790M). The experiment is described as follows: TR-FRET assay for ERBB kinases. The format is biochemical. The settings on record: geometric mean if measured more than once. In outline: as §2
The target in experiment [9] is HER2 InsYVMA (Homo sapiens (Human), UniProt P04626, INS775YVMA). The experiment is described as follows: TR-FRET assay for ERBB kinases. The format is biochemical. Particulars: geometric mean if measured more than once. The protocol:
TR-FRET Assay for ERBB Kinases
All compounds and PROTACs were serially diluted in three-fold increments using 100% DMSO, followed by an intermediate 10-fold dilution using Buffer A (50 mM HEPES, pH 7.5, 50 mM NaCl, 10 mM MgCl2, 1 mM DTT, and 0.1% Pluronic F-68). Two microliters of serially diluted compound or PROTAC were then transferred to black 384-well Proxiplates (PerkinElmer, #6008260) using an Integra Viaflo96. Next, 10 uL of protein kinase in Buffer A was added to each well of the assay plate and pre-incubated with compound for 10 minutes. Kinase reactions were then initiated by addition of 5 uL substrate mix containing 3 mM ATP and 30 uM fluorescein-labeled Poly-GluTyr (Thermo Fisher, #PV3610) in Buffer A and allowed to proceed for 10 minutes at room temperature. Reactions were quenched by addition of a 5 uL mixture containing 5 nM LanthaScreen® Tb-pY20 Antibody (Thermo Fisher, #PV3552) and 40 mM EDTA in Buffer A. Assay plates were then read using a Synergy2 (Biotek Instruments, Winooski, Vt.) via excitation thru a 340/20 nm bandpass filter and emission collected thru 490/10 nm (donor) and 520/25 nm (acceptor) bandpass filters. The final kinase concentrations used for each 15 uL reaction were as follows: 0.2 nM EGFR Exon20NPG (SignalChem, #E10-132GG), 0.1 nM wild type EGFR (BPS Bioscience, #40187), 0.3 nM EGFR L858R/T790M/C797S (BPS Bioscience, #40351), 0.1 nM EGFR L858R (BPS Bioscience, #40189), 0.4 nM L858R/T790M (BPS Bioscience, #40350), InM EGFR Dell9 (SignalChem, #E10-122JG), 10 nM EGFR Dell9 T790M (SignalChem, #E10-122KG), 0.3 nM Her2 (BPS Bioscience, #40230), 15 nM Her2 InsYVMA (SignalChem, #E27-13BG).

For experiment [10], the target named is EGFR-Δ19 (HCC827) (Homo sapiens (Human), UniProt P00533, DEL746-750). The experiment is described as follows: EGFR protein degradation assay (Western blot). The settings on record: 72 hours, 300 nM to 10 nM. The format is cell-based.
Experiment [11] deals with EGFR-wt (MDA-MB-231 or MCF7 or A549 or OVCAR8) (Homo sapiens (Human), UniProt P00533). As to the kind of experiment: EGFR protein degradation assay (Western blot). The experiment is classed as cell-based. Particulars: 72 hours, 300 nM to 10 nM. A digest of the protocol: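 Cells carrying the relevant EGFR form were plated at 300,000 per well in 6-well plates and left overnight to attach. For harvest, cells were rinsed once in ice-cold PBS and lysed in 400 μl lysis buffer containing protease inhibitors. Lysates were cleared at 10 000 rpm for 10 minutes and their protein content measured by BCA. Then 10 μg per sample was separated by SDS/PAGE at 165V for 2 hours, and EGFR was detected by ECL on a Chemidoc.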

In experiment [12] the target is EGFR Exon 20 ASV (HeLa*) (Homo sapiens (Human), UniProt P00533, DUP767-769). The experiment is described as follows: EGFR protein degradation assay (Western blot). The experiment is classed as cell-based. Particulars: 72 hours, 300 nM to 10 nM.
The target of experiment [13] is EGFR Exon20NPG (Homo sapiens (Human), UniProt P00533, INS770NPG). The experiment is described as follows: TR-FRET assay for ERBB kinases. The settings on record: geometric mean if measured more than once. The experiment is classed as biochemical. In outline:
as §2

Sequence of HER2WT (P04626 23-1255): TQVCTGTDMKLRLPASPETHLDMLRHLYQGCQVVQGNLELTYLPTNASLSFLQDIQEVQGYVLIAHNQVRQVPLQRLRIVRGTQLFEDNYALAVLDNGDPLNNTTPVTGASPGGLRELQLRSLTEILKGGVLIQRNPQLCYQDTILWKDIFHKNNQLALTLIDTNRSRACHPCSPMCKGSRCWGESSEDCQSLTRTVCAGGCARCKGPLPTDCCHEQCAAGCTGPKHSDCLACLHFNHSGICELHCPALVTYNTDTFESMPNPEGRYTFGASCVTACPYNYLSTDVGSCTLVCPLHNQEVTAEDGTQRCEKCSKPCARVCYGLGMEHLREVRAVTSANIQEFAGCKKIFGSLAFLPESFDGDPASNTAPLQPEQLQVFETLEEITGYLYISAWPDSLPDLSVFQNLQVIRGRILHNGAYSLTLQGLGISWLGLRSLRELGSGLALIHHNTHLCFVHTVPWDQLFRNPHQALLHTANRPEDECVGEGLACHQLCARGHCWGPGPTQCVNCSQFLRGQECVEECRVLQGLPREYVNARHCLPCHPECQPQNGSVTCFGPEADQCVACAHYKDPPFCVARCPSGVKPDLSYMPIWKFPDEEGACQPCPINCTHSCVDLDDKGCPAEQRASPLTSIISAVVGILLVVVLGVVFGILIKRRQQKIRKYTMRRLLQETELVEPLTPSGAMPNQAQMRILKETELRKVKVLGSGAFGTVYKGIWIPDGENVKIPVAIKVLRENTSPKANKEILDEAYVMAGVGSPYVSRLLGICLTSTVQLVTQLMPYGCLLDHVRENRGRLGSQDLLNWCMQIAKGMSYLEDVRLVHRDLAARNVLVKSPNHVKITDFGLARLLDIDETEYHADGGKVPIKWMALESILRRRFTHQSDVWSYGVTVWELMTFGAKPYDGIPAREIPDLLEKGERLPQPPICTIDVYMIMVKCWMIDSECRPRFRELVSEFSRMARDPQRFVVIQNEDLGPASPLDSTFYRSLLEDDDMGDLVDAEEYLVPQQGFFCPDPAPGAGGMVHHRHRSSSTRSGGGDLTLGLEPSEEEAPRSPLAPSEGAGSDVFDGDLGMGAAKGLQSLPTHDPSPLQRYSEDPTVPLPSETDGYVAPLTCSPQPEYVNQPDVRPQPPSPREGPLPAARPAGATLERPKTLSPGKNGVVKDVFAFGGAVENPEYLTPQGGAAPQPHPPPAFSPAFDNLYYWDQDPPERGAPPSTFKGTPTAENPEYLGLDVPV
Sequence of HER2 InsYVMA (P04626 other isoform, or with tags, fused parts or gaps del 1-675/ins YVMA behind 775 limits assumed): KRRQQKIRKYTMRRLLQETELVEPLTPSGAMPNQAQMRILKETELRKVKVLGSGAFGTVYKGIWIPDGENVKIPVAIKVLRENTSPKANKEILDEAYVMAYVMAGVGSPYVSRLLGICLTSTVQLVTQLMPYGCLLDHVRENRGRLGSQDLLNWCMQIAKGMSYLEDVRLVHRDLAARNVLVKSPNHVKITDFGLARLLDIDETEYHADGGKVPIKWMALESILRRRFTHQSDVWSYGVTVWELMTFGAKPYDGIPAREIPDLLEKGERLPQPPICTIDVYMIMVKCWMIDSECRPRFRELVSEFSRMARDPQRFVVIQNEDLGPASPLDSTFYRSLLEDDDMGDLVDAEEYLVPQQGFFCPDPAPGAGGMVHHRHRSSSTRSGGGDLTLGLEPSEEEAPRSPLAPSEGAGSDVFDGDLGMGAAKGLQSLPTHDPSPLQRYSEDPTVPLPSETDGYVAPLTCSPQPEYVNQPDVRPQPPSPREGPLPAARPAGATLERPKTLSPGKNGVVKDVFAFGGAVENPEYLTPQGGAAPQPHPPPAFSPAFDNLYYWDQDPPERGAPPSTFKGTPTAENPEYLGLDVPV

As a reminder, the IC50 is the concentration needed to halve the response being measured. As to `COC1CCN(c2nccc(Nc3cc4c(cn3)nc(COCCOCCOCCOc3ccc5c(c3)C(=O)N(C3CCC(=O)NC3=O)C5=O)n4C(C)C)n2)CC1` (centres unmarked) [Example 70, 2-(2,6-dioxopiperidin-3-yl)-5-(2-(2-(2-((1-isopropyl-6-((2-(4-methoxypiperidin-1-yl)pyrimidin-4-yl)amino)-1H-imidazo[4,5-c]pyridin-2-yl)methoxy)ethoxy)ethoxy)ethoxy)isoindoline-1,3-dione], the half-inhibitory concentration (IC50) in experiment [1] is 16 µM; in [2], 15 µM; in experiment [3] it was more than 30 µM; in experiment [5], more than 30 µM; in experiment [6] it was more than 30000 nM; in experiment [7], more than 30 µM. The 50% inhibitory concentration (IC50) in experiment [8] was determined as 11 µM; in [9], 19 µM. In addition, in experiment [4], the “EGFR protein remaining, EGFR L858R/T790M double mutant” value is given as “C (>80% EGFR protein remaining after 72 hours of incubation with the test compound at a concentration of 300 nM)”.
For `COC1CCN(c2nccc(Nc3cc4c(cn3)nc(COCCOCCOCC(=O)N[C@H](C(=O)N3C[C@@H](O)C[C@@H]3C(=O)N[C@@H](C)c3ccc(-c5scnc5C)cc3)C(C)(C)C)n4C(C)C)n2)CC1` [compound 73], the IC50 in [1] was 14 µM; in experiment [2], 11 µM; in experiment [3] it was 20 µM; in [5], 8.1 µM; in experiment [6], more than 30000 nM; in experiment [7], 9.8 µM. Besides, the half-maximal inhibitory concentration (IC50) in experiment [8] worked out at 6.8 µM; in [9], 3.4 µM. In addition, the “EGFR protein remaining, EGFR L858R/T790M double mutant” value in [4] is “C (>80% EGFR protein remaining after 72 hours of incubation with the test compound at a concentration of 300 nM)”.
Consider “(2S,4R)-1-((S,E)-2-(tert-butyl)-16-((4-((4-chloro-3-fluorophenyl)amino)-7-methoxyquinazolin-6-yl)amino)-12-methyl-4,16-dioxo-6,9-dioxa-3,12-diazahexadec-14-enoyl)-4-hydroxy-N-(4-(4-methylthiazol-5-yl)benzyl)pyrrolidine-2-carboxamide [Example 41]”, for which, in experiment [4], the “EGFR protein remaining, EGFR L858R/T790M double mutant” value is “B (≤80% and >50% EGFR protein remaining after 72 hours of incubation with the test compound at a concentration between 300 nM and 10 nM)”. In experiment [10], the “EGFR protein remaining, EGFR-Δ19” value was “A (≤50% EGFR protein remaining after 72 hours of incubation with the test compound at a concentration between 300 nM and 10 nM)”. The “EGFR protein remaining, EGFR-wt” value in experiment [11] was “A (≤50% EGFR protein remaining after 72 hours of incubation with the test compound at a concentration between 300 nM and 10 nM)”.
In the case of `Cc1ncsc1-c1ccc(CNC(=O)[C@@H]2C[C@@H](O)CN2C(=O)[C@@H](NC(=O)COCCOCCOCCOCCOCCN2CCN(Cc3ccc(-c4cc5c(NCc6ccccc6Cl)ncnc5[nH]4)cc3)CC2)C(C)(C)C)cc1` [compound 3], the IC50 in experiment [1] stood at 14 µM; in experiment [2], 14 µM; in [3], 0.21 µM; in experiment [13] it was 860 nM; in experiment [5] it was 0.0055 µM; in experiment [6], 1500 nM. For the same compound, the IC50 in [7] was 0.024 µM; in experiment [8], 6.6 µM. Also, the “EGFR protein remaining, EGFR L858R/T790M double mutant” value in experiment [4] is reported as “C (>80% EGFR protein remaining after 72 hours of incubation with the test compound at a concentration of 300 nM)”. Moreover, the “EGFR protein remaining, EGFR Exon 20 ASV” value in experiment [12] is “C (>80% EGFR protein remaining after 72 hours of incubation with the test compound at a concentration of 300 nM)”. Besides, the “EGFR protein remaining, EGFR-wt” value in experiment [11] is recorded as “C (>80% EGFR protein remaining after 72 hours of incubation with the test compound at a concentration of 300 nM)”.
`COC1CCN(c2nccc(Nc3cc4c(cn3)nc(COCCN3CCN(c5ccc6c(c5)C(=O)N(C5CCC(=O)NC5=O)C6=O)CC3)n4C(C)C)n2)CC1` (centres unmarked) [Example 71, 2-(2,6-dioxopiperidin-3-yl)-5-(4-(2-((1-isopropyl-6-((2-(4-methoxypiperidin-1-yl)pyrimidin-4-yl)amino)-1H-imidazo[4,5-c]pyridin-2-yl)methoxy)ethyl)piperazin-1-yl)isoindoline-1,3-dione]: the IC50 is 0.096 µM in [1]; 0.12 µM in [2]; 30 µM in experiment [3]; more than 30000 nM in experiment [13]; more than 30 µM in [5]; more than 30000 nM in experiment [6]. Moreover, the results for the half-inhibitory concentration (IC50) in experiment [7], in experiment [8] and in experiment [9] were 26 µM, 3.1 µM and 13 µM, respectively. Moreover, the “EGFR protein remaining, EGFR L858R/T790M double mutant” value in experiment [4] was “C (>80% EGFR protein remaining after 72 hours of incubation with the test compound at a concentration of 300 nM)”.
On to `Cc1ncsc1-c1ccc(CNC(=O)[C@@H]2C[C@@H](O)CN2C(=O)[C@@H](NC(=O)COCCOCCOCCN2CCN(Cc3ccc(-c4cc5c(NCc6ccccc6Cl)ncnc5[nH]4)cc3)CC2)C(C)(C)C)cc1` [Example 1, (2S,4R)-1-((S)-2-(tert-butyl)-14-(4-(4-(4-((2-chlorobenzyl)amino)-7H-pyrrolo[2,3-d]pyrimidin-6-yl)benzyl)piperazin-1-yl)-4-oxo-6,9,12-trioxa-3-azatetradecanoyl)-4-hydroxy-N-(4-(4-methylthiazol-5-yl)benzyl)pyrrolidine-2-carboxamide], for which the IC50 amounted to 4.5 µM in experiment [1]; 12 µM in experiment [2]; 0.065 µM in experiment [3]; 230 nM in experiment [13]; 0.0021 µM in experiment [5]; 1200 nM in experiment [6]. Besides, the IC50 in [7] is 0.014 µM; in experiment [8] it was 6.1 µM. Moreover, in experiment [4], the “EGFR protein remaining, EGFR L858R/T790M double mutant” value is listed as “C (>80% EGFR protein remaining after 72 hours of incubation with the test compound at a concentration of 300 nM)”. Further, in experiment [12], the “EGFR protein remaining, EGFR Exon 20 ASV” value is “C (>80% EGFR protein remaining after 72 hours of incubation with the test compound at a concentration of 300 nM)”. In addition, the “EGFR protein remaining, EGFR-wt” value in experiment [11] was “C (>80% EGFR protein remaining after 72 hours of incubation with the test compound at a concentration of 300 nM)”.

The values above are taken from patent publication US10994015B2, “EGFR proteolysis targeting chimeric molecules and associated methods of use” (Arvinas Operations, Inc., priority 2016, dated 2021).
